Test results: patent EP4759807A1, “PROTEOLYSIS TARGETING CHIMERA COMPOUND FOR DEGRADING IRAK4 AND USE THEREOF” (Shenzhen Zhongge Biological Technology Co., Ltd., priority 2023, dated 2025)
Counter-ions that a name gives are not always drawn.

Experiments:
[1] = biological target: T1, IRAK4 (Homo sapiens, UniProt Q9NWZ3); assay: WB detection of proteolysis (Western Blot, THP-1 cells); type: cell-based; conditions: Western Blot, THP-1 cells, 24 h; for DC50: read-out: DC50; for Dmax: read-out: Dmax
T1 sequence (Q9NWZ3 1-460): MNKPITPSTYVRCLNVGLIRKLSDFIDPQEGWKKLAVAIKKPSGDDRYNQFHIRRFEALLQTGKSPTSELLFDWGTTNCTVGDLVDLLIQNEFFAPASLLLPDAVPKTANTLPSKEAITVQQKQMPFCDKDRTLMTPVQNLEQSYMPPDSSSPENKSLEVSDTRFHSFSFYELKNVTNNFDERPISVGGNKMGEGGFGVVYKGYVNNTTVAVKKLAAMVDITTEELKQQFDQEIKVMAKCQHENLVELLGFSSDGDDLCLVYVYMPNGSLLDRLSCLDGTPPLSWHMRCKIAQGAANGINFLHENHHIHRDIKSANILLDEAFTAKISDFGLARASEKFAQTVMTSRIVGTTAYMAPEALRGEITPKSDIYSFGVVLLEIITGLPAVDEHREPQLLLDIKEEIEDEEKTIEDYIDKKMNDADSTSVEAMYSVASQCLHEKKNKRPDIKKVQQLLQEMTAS
Summary of the method: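 IRAK4 level in RIPA lysates read by Western blot with Odyssey imaging; values from bell-shaped non-linear fit with two four-parameter sections (Plateau1, Plateau2, Dip, LogEC50_1/2, nH1/2).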

[2] = biological target: T1, IRAK4; assay: Hibit fluorescence detection of proteolysis (IRAK4-HiBiT in HEK293T cells); type: cell-based; parameters: host or cells: HEK293T (ATCC); conditions: for Dmax: HEK-293T; for DC50: IRAK4-HiBiT, HEK293T cells, 24 h
Summary of the method: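 Degradation read-out: luminescence from lytic HiBiT detection (15 min, room temperature) after 24 h compound exposure (37 °C, 5% CO2) of HEK293T cells transiently expressing IRAK4 fused to a HiBiT tag. Data fitted to a bell-shaped four-parameter model giving two EC50 values.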

| SMILES | DC50 [1] | Dmax [1] | Dmax [2] | DC50 [2] | DC50 ([2]; read-out: DC50) |
| --- | --- | --- | --- | --- | --- |
| Cn1c(=O)n(C2CCC(=O)NC2=O)c2cccc(N3CCN(C[C@H]4CC[C@H](n5cc(-n6cc(-c7cnn8ccc(N9CCC[C@H](N)C9)nc78)nn6)c(C(F)F)n5)CC4)CC3)c21 (some centres unmarked) [Example 115] | < 10 nM | > 70% | > 80% | < 0.5 nM |  |
| Cn1c(=O)n(C2CCC(=O)NC2=O)c2cccc(N3CCC(N4CCN(C[C@H]5CC[C@H](n6cc(-n7cc(-c8cnn9ccc(N%10CCC(C)(O)CC%10)nc89)nn7)c(C(F)F)n6)CC5)CC4)CC3)c21 (some centres unmarked) [Example 124] | < 10 nM | 60 to 70% | > 80% | < 0.5 nM |  |
| Cn1c(=O)n(C2CCC(=O)NC2=O)c2cccc(N3CCC4(CCN(C[C@H]5CC[C@H](n6cc(-n7cc(-c8cnn9ccc(N%10CCC[C@H](N)C%10)nc89)nn7)c(C(F)F)n6)CC5)CC4)CC3)c21 (some centres unmarked) [Example 120] | < 10 nM | > 70% | > 80% | 0.5 to 1 nM |  |
| Cn1c(=O)n(C2CCC(=O)NC2=O)c2cccc(N3CCN(C4CCN(C[C@H]5CC[C@H](n6cc(-n7cc(-c8cnn9ccc(N%10CCC[C@H](O)C%10)nc89)nn7)c(C(F)F)n6)CC5)CC4)CC3)c21 (some centres unmarked) [Example 144] | < 10 nM | > 70% | > 80% | < 0.5 nM |  |
| Cn1c(=O)n(C2CCC(=O)NC2=O)c2cccc(N3CCC4(CCN(C[C@H]5CC[C@H](n6cc(-n7cc(-c8cnn9ccc(N%10CCC[C@H](N)C%10)nc89)nn7)c(C(F)F)n6)CC5)C4)CC3)c21 (some centres unmarked) [Example 119] | 10 to 30 nM | > 70% | > 80% | 0.5 to 1 nM |  |
| Cn1c(=O)n(C2CCC(=O)NC2=O)c2cccc(N3CCC4(CCN(C[C@H]5CC[C@H](n6cc(-n7cc(-c8cnn9ccc(N%10CCNCC%10)nc89)nn7)c(C(F)F)n6)CC5)C4)CC3)c21 (some centres unmarked) [Example 128, 3-(4-(2-(((1r,4r)-4-(3-(difluoromethyl)-4-(4-(5-(piperazin-1-yl)pyrazolo[1,5-a]pyrimidin-3-yl)-1H-1,2,3-triazol-1-yl)-1H-pyrazol-1-yl)cyclohexyl)methyl)-2,8-diazaspiro[4.5]dec-8-yl)-3-methyl-2-oxo-2,3-dihydro-1H-benzo[d]imidazol-1-yl)piperidine-2,6-dione dihydrochloride] | < 10 nM | > 70% | > 80% | < 0.5 nM |  |
| Cn1c(=O)n(C2CCC(=O)NC2=O)c2cccc(N3CCC(N4CCN(C[C@H]5CC[C@H](n6cc(-n7cc(-c8cnn9ccc(NCCC(C)(C)O)nc89)nn7)c(C(F)F)n6)CC5)CC4)CC3)c21 (some centres unmarked) [Example 125] | < 10 nM | > 70% | > 80% | < 0.5 nM |  |
| C[C@H]1COCCN1c1ccn2ncc(-c3cn(-c4cn([C@H]5CC[C@H](CN6CCC7(CC6)CCN(c6cccc8c6n(C)c(=O)n8C6CCC(=O)NC6=O)C7)CC5)nc4C(F)F)nn3)c2n1 (some centres unmarked) [Compound 204] | < 10 nM | 60 to 70% | 70 to 80% |  | < 0.5 nM |
